The test system of data set [1] is human prostate cancer cell VCaP nude mouse transplanted tumor model. Kind of data set: Prostate tumor pharmacodynamics experiment: VCaP nude mouse transplanted tumor model. It is filed as in vivo, BALB/c nude mice. The settings on record: 0.5 mmol·kg−1 i.g. QD; for Tumor volume, day 25: * P<0.05, ** P<0.01 vs solvent control.
Method: Male BALB/c nude mice (number: 90; age: 6-7 weeks) purchased from Beijing Vital River Laboratory Animal Technology Co., Ltd., were raised in the SPF animal room of Suzhou Shengsu New Drug Development Co., Ltd. at a temperature of 20˜25° C. and a relative humidity 40%˜70%, and bright and dark illumination for 12 hours respectively; these mice were allowed to drink and eat freely. After normal feeding for about 6 days, mice with good physical signs can be selected for this experiment after veterinary inspection. Before grouping, animals were identified at their base of tail using marking pens. After grouping, each animal was identified by ear clipping.
Human prostate cancer cells VCaP were obtained from the Shanghai Cell Bank of the Chinese Academy of Sciences (CAS, cryopreserved in liquid nitrogen in our laboratory).
Under a culture condition of 5% CO2 and 37° C., VCaP cells were routinely cultured in DMEM medium containing 10% fetal bovine serum. Digested with 0.25% trypsin and passaged, VCaP cells were passaged 2-3 times per week based on cell growth, with a passage ratio of 1:3 to 1:5.
The VCaP cells in logarithmic growth phase were collected, counted, and resuspended in 50% DMEM basal medium and 50% Matrigel Matrix, and the cell concentration was adjust to 5×10^7 cells/mL; the cells was placed in an ice box; Cell suspension was aspirated with a 1 ml syringe, and injected subcutaneously to the anterior right armpit of nude mice. Each animal was inoculated with 200 μL (1×10^7 cells/mouse), and a VCaP transplant tumor model in nude mice was established. Regularly observe the status of mice, measure the diameter of the tumor with an electronic vernier caliper, input the data into Excel spreadsheets, calculate the tumor volume, and monitor its growth. When the tumor volume reached 100-300 mm3, 60 mice with good health and similar tumor volume were selected, and divided into 10 groups (n=6) based on the tumor volume using random block method, while ensuring that the average body weight of each group remained consistent as much as possible. The day of grouping was taken as the first day of the experiment (D1). The tumor diameters were measured twice a week after the initiation of the experiment, the tumor volumes were calculated, and the body weights of the animals were weighed and recorded at the same time.
Preparation of DMSO&PEG400&PG (v:v:v, 10:60:30): appropriate volumes of DMSO, PEG400 and PG were drawed respectively, and mixed well. The ratio of DMSO, PEG400 and PG in the mixture is 10:60:30 (v:v:v), and this mixture is used as a blank solvent and stored at room temperature.
Appropriate amount of the test compound was weighed and added into a glass bottle, appropriate volume of solvent DMSO was added, be treated with vortex ultrasonication, then appropriate volumes of PEG400 and PG were added in turn, be vortex mixed to obtain a dosing formulation with a final concentration of 0.05M. The dosing formulation was stored in refrigerator at 2-8° C. after subpackaging, and was stirred evenly with vortex before each administration. The dosing formulation was prepared every 7 days, and was subpackaged and stored in refrigerator at 4° C.
Appropriate amount of ZONK1901-10 was weighed and added into a glass bottle, appropriate volume of corn oil, was added, be treated with vortex ultrasonication evenly, a dosing formulation with a final concentration of 19.58 mg·mL-1 (0.05 M) was obtained.
The test system of data set [2] is experimental rabbit ear acne. As to the kind of experiment: Pharmacodynamics evaluation of acne: coal tar rabbit ear acne model, HE pathology. The settings on record: 0.01% ointment, 1 g per animal, once a day, two weeks, 10 rabbits per group. It is filed as in vivo, Japanese big-ear white rabbits. The source says:
There are 140 male healthy Japanese big-ear white rabbits, weighing 2.0-2.5 kg. After one week of adaptive rearing, 10 rabbits were randomly selected according to their body weights as the normal control group, and the remaining 130 rabbits were coated with coal tar once a day in the area of 2×2 cm2 at 2 cm outside the opening of ear canal, with a thickness of about 0.5 mm (Before coating, the coal tar was heated to melt in a water bath, and the last coal tar shell was removed before each application; the rabbits in normal control group were coated with olive oil by the same method as before). After 3 weeks for modeling, according to the degree of skin lesion, 130 rabbits were randomly divided into 13 groups which is model control group, Example 1 compound (1 group), Example 2 compound (2 groups), Example 3 compound (3 groups), Example 4 (4 groups), Example 5 (5 groups), Example 6 (6 groups), Example 7 (7 groups), Example 8 (8 groups), Example 9 (9 groups), Example 10 (10 groups), Example 11 (11 groups), Example 12 (12 groups), Example 13 (13 groups), and each group had 10 rabbits. After grouping, each dose group were continued to be coated coal tar in the morning, and after the coal tar was removed in the afternoon, apply the test drug or control drug (both 0.01%/10 g ointment, apply 1 g ointment per animal) on the lesion, once a day, for two consecutive weeks (the model control group and the normal control group were coated with the same amount of matrix). 24 hours after the last administration, the animals were sacrificed by air embolism, and the skin (full thickness) of the ear where the administration was administered was taken, fixed with 4% paraformaldehyde solution, stained with HE, and routinely observed for pathology.1.

Data set [3] is described as follows: Pharmacokinetic experiment after intragastric administration in mice (LC-MS/MS of ZONK1901-1 and ZONK1901-2).
Method: To study the pharmacokinetic properties after intragastric administration in mice.
Each mouse was collected at 2-3 discrete points in time.
An LC-MS/MS analysis method for determining the concentrations of ZONK 1901-1 and ZONK1901-2 in mouse whole blood was established. At the same time, the obtained plasma concentration data was calculated by using the pharmacokinetic processing software Pharsight Phoenix WinNonlin8.0 non-compartmental model to calculate relevant pharmacokinetic parameters.
Data set [4] has as its system tumor model mice inoculated with Vcap (human prostate cancer cells). Conditions: intraperitoneal injections, cited from earlier work.
[5] abbreviates: metabolite ZONK1901-1 (M1) in mouse blood after intragastric administration of the group's compound.
Where [6] appears, read: metabolite ZONK1901-2 (M2) in mouse blood after intragastric administration of the group's compound.

The text below walks through data of patent US20240208905A1, “ABIRATERONE DERIVATIVE, PREPARATION AND APPLICATION THEREOF” (GUANGDONG ZHONGKE MEDICINE R&D LTD., priority 2021, published 2024).

SMILES strings stand for the structures. Marks after values point to notes of the source that are not given here.

For orientation: Cmax means the highest concentration seen after dosing. One may read the Tmax as the time at which the peak concentration occurs.

As to `CNCCC(=O)ON=C1C=C2CC[C@H]3[C@H](CC[C@]4(C)C(c5cccnc5)=CC[C@@H]34)[C@@]2(C)CC1` [Example 6, (8S,9S,10R,13S,14S)-10,13-Dimethyl-17-(pyridin-3-yl) -6,7,8,9,10,11,12,13,14,15-decahydro-1H-cyclopenta[a]phenanthrenyl-3(2H)-one O-(3-(methylamino)propionyl)oxime], the “Tumor volume, Day 1” value in data set [1] (Day 1 (day of grouping, start of dosing), n=6) is given as 227 ± 21^ mm3. Also, the “Tumor volume, day 25” value in data set [1] (day 25, n=6) was 405 ± 15 * mm3. Also, in data set [1] (day 25, vs solvent control), the “Growth Inhibition rate (GI)” value was 80.7% **. In addition, in data set [2], the “degree of inflammatory cell infiltration: number of rabbits graded +” value is 6, the “degree of inflammatory cell infiltration: number of rabbits graded ++” value was 3, the “degree of inflammatory cell infiltration: number of rabbits graded +++” value is 1 and the “degree of inflammatory cell infiltration: number of rabbits graded −” value is recorded as 0. Further, in data set [2] (hair follicle keratinization), the “Degree of keratinization: number of rabbits graded +” value was determined as 5, the “Degree of keratinization: number of rabbits graded ++” value was 5, the “Degree of keratinization: number of rabbits graded +++” value is listed as 0 and the “Degree of keratinization: number of rabbits graded −” value is recorded as 0. Further, in data set [3] (setting [5]), the AUC0-inf turned out to be 2396 nM·h, the AUC0-t came to 2103 nM·h, the highest concentration (Cmax) was found to be 679 nM and the Tmax is 2.00 h. Besides, the t1/2 in data set [3] (setting [5]) was 2.73 h. Besides, in data set [3] (setting [6]), the AUC0-inf was found to be 2287 nM·h, the AUC0-t turned out to be 2237 nM·h, the Cmax is 421 nM and the time of peak concentration (Tmax) is listed as 2.00 h. The t1/2 in data set [3] (setting [6]) was 3.17 h.

Turning to `CC(=O)O[C@H]1CC[C@@]2(C)C(=CC[C@@H]3[C@@H]2CC[C@]2(C)C(c4cccnc4)=CC[C@@H]32)C1` [ZONK1901-10, abiraterone acetate, reference compound], the inhibition in vivo at 500 µmol/kg in data set [1] (Mus musculus, VCaP, po, 600 h, day 25, vs solvent control, read-out: Growth Inhibition rate (GI)) came out at 44.1%. In addition, the “Tumor volume, day 25” value in data set [1] (day 25, n=6) is listed as 765 ± 46 * mm3. Moreover, the “Autopsy finding on absorption of the drug” value in data set [4] is on record as “some of the drugs were not absorbed”. Further, in data set [4] (some mice), the “Adverse findings in tumor model mice” value was “developed abdominal distension and died”. In data set [3] (intragastric administration), the “M2 (ZONK1901-2) in the metabolites” value is listed as “not detected”.
